Data published in US20240270821A1, “GIP/GLP1/GCG TRI-RECEPTOR AGONISTS AND USES THEREOF” (priority 2023, published 2024).
Like-named read-outs stand apart in the source and are kept apart here. Starred links: 1 amine or outer side, 2 acyl side, 3 side chain; linkers in the order of their positions; H or OH if unused. Non-standard residues stand in square brackets, D forms with d. Groups on a side chain read outwards from the residue. No end group written: not given here. *: point of attachment. C18 diacid = O=C(O)CCCCCCCCCCCCCCCCC(=O)*; αMePhe(2-F) = C[C@](N)(Cc1ccccc1F)C(=O)O; γGlu = O=C(O)[C@H](CCC(=O)[*:2])N[*:1]; αMe4Pal = C[C@](N)(Cc1ccncc1)C(=O)O; αMeY = C[C@](N)(Cc1ccc(O)cc1)C(=O)O; 4Pal = N[C@@H](Cc1ccncc1)C(=O)O; αMeL = CC(C)C[C@](C)(N)C(=O)O; αMeS = C[C@](N)(CO)C(=O)O; Orn = NCCC[C@H](N)C(=O)O; AEEA = NCCOCCOCC(=O)O; Aib = CC(C)(N)C(=O)O

How the values were obtained:
Assay type in all cases: cell-based
[1] = molecular target: T1, hGIPR (Homo sapiens, UniProt P48546); assay: Functional cAMP activity in the presence of 1% HSA; conditions: read-out: cAMP Rel EC50, hGIPR
T1 sequence (P48546 22-466): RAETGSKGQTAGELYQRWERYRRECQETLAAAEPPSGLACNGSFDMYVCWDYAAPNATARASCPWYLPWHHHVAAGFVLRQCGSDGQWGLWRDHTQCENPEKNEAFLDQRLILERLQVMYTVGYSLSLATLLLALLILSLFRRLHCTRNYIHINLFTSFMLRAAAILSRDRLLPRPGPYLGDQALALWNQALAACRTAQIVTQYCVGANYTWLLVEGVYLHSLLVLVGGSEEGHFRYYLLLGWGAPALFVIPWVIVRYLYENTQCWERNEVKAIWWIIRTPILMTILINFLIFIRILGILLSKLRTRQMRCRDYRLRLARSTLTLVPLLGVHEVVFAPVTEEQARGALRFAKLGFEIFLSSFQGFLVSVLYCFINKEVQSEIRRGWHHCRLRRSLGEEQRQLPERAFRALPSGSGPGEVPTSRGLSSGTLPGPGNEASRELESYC

[2] = molecular target: T2, hGLP-1R (Homo sapiens, UniProt P43220); assay: Functional cAMP activity in the presence of 1% HSA; conditions: read-out: cAMP Rel EC50, hGLP-1R
[3] = molecular target: human GcgR (Homo sapiens, UniProt P47871); assay: Functional cAMP activity in the presence of 1% HSA; conditions: read-out: cAMP Rel EC50, hGcgR
[4] = molecular target: T1, hGIPR; assay: Functional cAMP activation in the presence of 0.1% casein (no HSA); conditions: read-out: Relative cAMP EC50, hGIPR;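 for Relative cAMP EC50, hGIPR: intracellular cAMP rise after 30 min at 37 °C read by HTRF against a standard curve, scaled between buffer alone (0%) and top control ligand concentration (100%), four-parameter fit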;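 for Relative cAMP EC50, hGLP-1R: intracellular cAMP rise after 30 min at 37 °C read by HTRF, normalized between buffer only (0%) and maximal control ligand (100%), four-parameter variable-slope fit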;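 for Relative cAMP EC50, hGcgR: intracellular cAMP rise after 30 min at 37 °C, read by HTRF against a cAMP standard curve, scaled from buffer only (0%) to maximal control ligand response (100%)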
[5] = molecular target: T2, hGLP-1R; assay: as above; conditions: read-out: Relative cAMP EC50, hGLP-1R
[6] = molecular target: hGcgR (Homo sapiens, UniProt P47871); assay: as above; conditions: read-out: Relative cAMP EC50, hGcgR;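 note: intracellular cAMP rise after 30 min at 37 °C, read by HTRF against a cAMP standard curve, scaled from buffer only (0%) to maximal control ligand response (100%)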
[7] = in the presence of 0.1% casein (no HSA), geometric mean
[8] = HEK-293 clonal cell line, in the presence of 1% HSA, geometric mean of relative EC50
[9] = 0.1% casein, no HSA, geometric mean

Chain of hGcgR (P47871 26-477): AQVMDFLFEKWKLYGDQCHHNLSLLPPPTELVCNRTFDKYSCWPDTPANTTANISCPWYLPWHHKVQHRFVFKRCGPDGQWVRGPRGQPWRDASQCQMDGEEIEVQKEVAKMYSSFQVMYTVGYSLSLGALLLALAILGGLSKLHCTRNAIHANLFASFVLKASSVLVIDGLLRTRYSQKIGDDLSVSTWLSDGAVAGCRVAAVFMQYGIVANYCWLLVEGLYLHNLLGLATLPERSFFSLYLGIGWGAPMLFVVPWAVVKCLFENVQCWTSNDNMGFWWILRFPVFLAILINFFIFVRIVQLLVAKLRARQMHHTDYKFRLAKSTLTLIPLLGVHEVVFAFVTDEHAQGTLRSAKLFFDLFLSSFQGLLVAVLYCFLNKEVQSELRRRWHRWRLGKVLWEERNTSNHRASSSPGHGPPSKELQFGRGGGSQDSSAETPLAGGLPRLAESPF
Chain of human GcgR (P47871 26-477): as above
T2 sequence (P43220 24-463): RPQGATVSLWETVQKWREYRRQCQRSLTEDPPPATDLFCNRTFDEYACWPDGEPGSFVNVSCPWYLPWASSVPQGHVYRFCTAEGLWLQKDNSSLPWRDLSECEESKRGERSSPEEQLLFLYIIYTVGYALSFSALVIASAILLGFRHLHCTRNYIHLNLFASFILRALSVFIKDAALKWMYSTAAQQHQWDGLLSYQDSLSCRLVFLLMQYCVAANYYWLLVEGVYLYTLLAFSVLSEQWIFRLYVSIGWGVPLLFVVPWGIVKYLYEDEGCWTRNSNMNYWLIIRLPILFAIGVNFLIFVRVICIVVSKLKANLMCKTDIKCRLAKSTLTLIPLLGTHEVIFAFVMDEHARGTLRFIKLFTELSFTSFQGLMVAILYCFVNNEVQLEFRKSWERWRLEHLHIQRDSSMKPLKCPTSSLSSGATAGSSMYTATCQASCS

Substance	EC50 [1] [nM]	EC50 [2] [nM]	EC50 [3] [nM]	EC50 [4, 7] [nM]	EC50 [5, 7] [nM]	EC50 [6, 7] [nM]	EC50 [1, 8] [nM]	EC50 [2, 8] [nM]	EC50 [3, 8] [nM]	EC50 [4] [nM]	EC50 [5] [nM]	EC50 [6] [nM]	EC50 [4, 9] [nM]	EC50 [5, 9] [nM]	EC50 [6, 9] [nM]
H-Y[Aib]QGT[αMePhe(2-F)]TSD[4Pal][αMeS]I[αMeL]LD[Orn]K([AEEA-γGlu-C18 diacid])AQ[αMe4Pal]EFI[dE][αMeY]LIEGGPSSGAPPPEGE-NH2 [Example 1148]	0.873	44.3	175	0.00801	0.299	1.6	–	–	–	–	–	–	–	–	–
H-Y[Aib]QGTFTSD[4Pal]SQ[αMeL]LD[Orn]K([γGlu-γGlu-C18 diacid])AQ[αMe4Pal]AFIE[αMeY]LIA[Aib]GPSSGAPPPSGSEE-NH2 [Example 1107]	5.29	59	864	0.0447	0.51	5.66	–	–	–	–	–	–	–	–	–
H-Y[Aib]QGTFTSD[4Pal][αMeS]Q[αMeL]LD[Orn]K([dE-γGlu-C18 diacid])AQ[αMe4Pal]QFIE[αMeY]LIA[Aib]GPSSGEPPPSGGGE-NH2 [Example 1182]	2.73	80.4	172	0.0316	0.797	1.24	–	–	–	–	–	–	–	–	–
H-Y[Aib]QGTFTSD[4Pal]S[Orn][αMeL]LDKK([AEEA-γGlu-C18 diacid])AQ[Aib]AFIEYLLE[dA]GPSSGAPPPSG[4Pal]-NH2 [Example 274]	27.6	560	1120	0.296	4.9	9.37	–	–	–	–	–	–	–	–	–
H-Y[Aib]QGTFTSD[4Pal]S[Orn][αMeL]LD[Orn]K([γGlu-γGlu-C18 diacid])AQ[αMe4Pal]EFIE[αMeY]LLAGGPSSGAPPPSGSEE-NH2 [Example 996]	–	–	–	0.2	98.1	14.9	11.2	4810	1160	–	–	–	–	–	–
H-Y[Aib]QGT[αMePhe(2-F)]TSD[4Pal][αMeS]I[αMeL]LD[Orn]K([AEEA-γGlu-C18 diacid])AQ[Aib][Orn]FI[dE][αMeY]LIEGGPSSGEPEPSEG-NH2 [Example 481]	1.19	14.2	100	–	–	–	–	–	–	0.0164	0.204	1.22	–	–	–
H-Y[Aib]Q[dA]T[αMePhe(2-F)]TSD[4Pal][αMeS]I[αMeL]LD[Orn]K([γGlu-γGlu-C18 diacid])AQ[Aib]EFI[dE][αMeY]LIEGGPSSGAPPPSGGGE-NH2 [Example 1225]	3.67	31.4	275	–	–	–	–	–	–	–	–	–	0.0531	0.399	2.45
Y[Aib]QGT[αMePhe(2-F)]TSD[4Pal][αMeS]I[αMeL]LD[Orn][Orn]([AEEA-γGlu-C18 diacid])AQ[αMe4Pal]EFI[dE][αMeY]LVEGGPSSGAPPPSGS-NH2 [Example 1210]	0.635	38.1	288	–	–	–	–	–	–	–	–	–	0.00704	0.375	2.25
H-Y[Aib]QGT[αMePhe(2-F)]TSD[4Pal][αMeS]I[αMeL]LD[Orn]QAQ[αMe4Pal]EFI[dE][αMeY]LVEGGPSSGAPPPSGS-NH2 [Example 1231]	0.00994	1.22	17.1	–	–	–	–	–	–	–	–	–	0.0146	1.23	15.7
